Laboratory results from publication PMC10945501, “Development and In Vivo Evaluation of Small-Molecule Ligands for Positron Emission Tomography of Immune Checkpoint Modulation Targeting Programmed Cell Death 1 Ligand 1” (Journal of Medicinal Chemistry, 2024).
Where two headings read alike, the source gives them in different places.

Columns and labels:
[1] = biological target: T1, human PD-L1 (Homo sapiens, UniProt Q9NZQ7); experiment: HTRF PD-1/PD-L1 binding assay (cell-free); details: for fold reduction of affinity, pyrrole at R1 vs 1,4-benzodioxanyl analogue / fold decrease in affinity by methylation at R3*: IC50 ratio; for fold reduction of affinity, pyrrole at R1 vs 1,4-benzodioxanyl analogue: pairs 4c vs 4m, 4e vs 4n, 4f vs 4o, 5c vs 5f; for fold decrease in affinity by methylation at R3*: pairs 4c vs 5a, 4c vs 5b, 4e vs 5c, 4e vs 5d
T1 construct: purchased Cisbio Bioassays SAS, Codolet, France 64PD1PEG
T1 sequence (Q9NZQ7 19-238 limits assumed): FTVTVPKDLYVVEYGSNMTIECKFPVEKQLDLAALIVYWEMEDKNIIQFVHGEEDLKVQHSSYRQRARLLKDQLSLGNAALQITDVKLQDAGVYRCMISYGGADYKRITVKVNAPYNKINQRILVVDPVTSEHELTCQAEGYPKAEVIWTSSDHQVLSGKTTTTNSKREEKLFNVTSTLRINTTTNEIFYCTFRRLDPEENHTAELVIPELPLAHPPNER

[2] = Lipophilicity by HPLC method (μHPLC logD); details: for μHPLC logD: pH 7.4; for chromatographic logD: pH 7.4, μHPLC logD
[3] = cell-free competitive PD-1/PD-L1 HTRF, mean ± SD, read-out: IC50 (hPD-L1 binding affinity, HTRF)
[4] = no full dose–response curves observed, values are relative IC50, read-out: relative IC50 (hPD-L1 binding affinity, HTRF)

Row | IC50 [1, 3] | IC50 [1, 4] | μHPLC logD [2] | chromatographic logD [2] | fold reduction of affinity, pyrrole at R1 vs 1,4-benzodioxanyl analogue [1] | fold decrease in affinity by methylation at R3* [1] | SMILES
1 | 46 ± 5 nM | – | – | 3.42 ± 0.05 | – | – | Cc1c(COc2cc(OCc3ccnc(C#N)c3)c(CNCCOCCOCCOCCOCCC(=O)O)cc2Cl)cccc1-c1ccc2c(c1)OCCO2 [Compound 4g, 1-(5-Chloro-2-((2-cyanopyridin-4-yl)methoxy)-4-((3-(2,3-dihydrobenzo [b][1,4]dioxin-6-yl)-2-methylbenzyl)oxy)phenyl)-5,8,11,14-tetraoxa-2-azaheptadecan-17-oic Acid]
2 | 8.2 ± 1.8 nM | – | – | 3.42 ± 0.05 | – | – | C#CCC[C@H](NCc1cc(Cl)c(OCc2cccc(-c3ccc4c(c3)OCCO4)c2C)cc1OCc1ccnc(C#N)c1)C(=O)O [Compound 4h, (S)-2-((5-Chloro-2-((2-cyanopyridin-4-yl)methoxy)-4-((3-(2,3-dihydrobenzo [b][1,4]dioxin-6-yl)-2-methylbenzyl)oxy)benzyl)amino)hex-5-ynoic Acid]
3 | 3.7 ± 0.5 nM | – | – | 3.47 ± 0.06 | – | – | C#CCOC(=O)NCCCC[C@H](NCc1cc(Cl)c(OCc2cccc(-c3ccc4c(c3)OCCO4)c2C)cc1OCc1ccnc(C#N)c1)C(=O)O [Compound 4i, N^2-(5-Chloro-2-((2-cyanopyridin-4-yl)methoxy)-4-((3-(2,3-dihydrobenzo[b][1,4]dioxin-6-yl)-2-methylbenzyl)oxy)benzyl)-N^6-((prop-2-yn-1-yloxy)carbonyl)-L-lysine]
4 | 11 ± 1 nM | – | 4.7 ± 0.2 | 4.73 ± 0.24 | – | – | CC(=O)NCCNCc1cc(Cl)c(OCc2cccc(-c3ccc4c(c3)OCCO4)c2C)cc1OCc1cccc(C#N)c1 [Compound 4j, N-(2-((5-Chloro-2-((3-cyanobenzyl)oxy)-4-((3-(2,3-dihydrobenzo[b][1,4]dioxin-6-yl)-2-methylbenzyl)oxy)benzyl)amino)ethyl)acetamide]
5 | 50 ± 7 nM | – | 4.2 ± 0.2 | 4.21 ± 0.16 | – | – | CC(=O)NCCNCc1cc(Cl)c(OCc2cccc(-c3ccc4c(c3)OCCO4)c2C)cc1OCc1cocn1 [Compound 4k, N-(2-((5-Chloro-4-((3-(2,3-dihydrobenzo[b][1,4]dioxin-6-yl)-2-methylbenzyl)oxy)-2-(oxazol-4-ylmethoxy)benzyl)amino)ethyl)acetamide]
6 | 16 ± 3 nM | – | – | 3.39 ± 0.04 | – | – | Cc1c(COc2cc(OCc3cocn3)c(CN3CCCC[C@H]3C(=O)O)cc2Cl)cccc1-c1ccc2c(c1)OCCO2 [Compound 4l, (S)-1-(5-Chloro-4-((3-(2,3-dihydrobenzo[b][1,4]dioxin-6-yl)-2-methylbenzyl)oxy)-2-(oxazol-4-ylmethoxy)benzyl)piperidine-2-carboxylic Acid]
7 | 6 ± 1 nM | – | – | 2.83 ± 0.04 | 1.03 fold | – | Cc1c(COc2cc(OCc3ccnc(C#N)c3)c(CN[C@H](CO)C(=O)O)cc2Cl)cccc1-n1cccc1 [Compound 4m, (5-Chloro-2-((2-cyanopyridin-4-yl)methoxy)-4-((2-methyl-3-(1H-pyrrol-1-yl)benzyl)oxy)benzyl)-D-serine]
8 | 50 ± 3 nM | – | 4.3 ± 0.2 | 4.34 ± 0.18 | 6.40 fold | – | Cc1c(COc2cc(OCc3ccnc(C#N)c3)c(CNCCO)cc2Cl)cccc1-n1cccc1 [Compound 4n, 4-((4-Chloro-2-(((2-hydroxyethyl)amino)methyl)-5-((2-methyl-3-(1H-pyrrol-1-yl)benzyl)oxy)phenoxy)methyl)picolinonitrile]
9 | 29 ± 3 nM | – | – | 3.14 ± 0.01 | 5.99 fold | – | Cc1c(COc2cc(OCc3ccnc(C#N)c3)c(CN3CCCC[C@H]3C(=O)O)cc2Cl)cccc1-n1cccc1 [Compound 4o, (S)-1-(5-Chloro-2-((2-cyanopyridin-4-yl)methoxy)-4-((2-methyl-3-(1H-pyrrol-1-yl)benzyl)oxy)benzyl)piperidine-2-carboxylic Acid]
10 | 30 ± 8 nM | – | 4.9 ± 0.3 | 4.88 ± 0.26 | – | 4.98 fold | COC(=O)[C@@H](CO)NCc1cc(Cl)c(OCc2cccc(-c3ccc4c(c3)OCCO4)c2C)cc1OCc1ccnc(C#N)c1 [Compound 5b, Methyl (5-Chloro-2-((2-cyanopyridin-4-yl)methoxy)-4-((3-(2,3-dihydrobenzo[b][1,4]dioxin-6-yl)-2-methylbenzyl)oxy)benzyl)-D-serinate]
11 | 19 ± 4 nM | – | 5.1 ± 0.3 | 5.09 ± 0.29 | – | 2.42 fold | COCCNCc1cc(Cl)c(OCc2cccc(-c3ccc4c(c3)OCCO4)c2C)cc1OCc1ccnc(C#N)c1 [Compound 5d, 4-((4-Chloro-5-((3-(2,3-dihydrobenzo[b][1,4]dioxin-6-yl)-2-methylbenzyl)oxy)-2-(((2-methoxyethyl)amino)methyl)phenoxy)methyl)picolinonitrile]
12 | 589 ± 178 nM | – | 5.6 ± 0.4 | 5.61 ± 0.37 | – | – | CC(=O)N1CCN(Cc2cc(Cl)c(OCc3cccc(-c4ccc5c(c4)OCCO5)c3C)cc2OCc2cccc(C#N)c2)C1=O [Compound 5e, 3-((2-((3-Acetyl-2-oxoimidazolidin-1-yl)methyl)-4-chloro-5-((3-(2,3-dihydrobenzo[b][1,4]dioxin-6-yl)-2-methylbenzyl)oxy)phenoxy)methyl)benzonitrile]

Continued, compound first:

Row | SMILES | IC50 [1, 3] | IC50 [1, 4] | μHPLC logD [2] | chromatographic logD [2] | fold reduction of affinity, pyrrole at R1 vs 1,4-benzodioxanyl analogue [1] | fold decrease in affinity by methylation at R3* [1]
13 | Cc1c(COc2cc(O)c(C=O)cc2Cl)cccc1-c1ccccc1 [Compound 2b, 5-Chloro-2-hydroxy-4-((2-methyl-[1,1′-biphenyl]-3-yl)methoxy)benzaldehyde] | > 100000 nM | – | – | – | – | –
14 | Cc1c(COc2cc(O)c(C=O)cc2Cl)cccc1-c1ccc2c(c1)OCCO2 [Compound 2c, 5-Chloro-4-((3-(2,3-dihydrobenzo[b][1,4]dioxin-6-yl)-2-methylbenzyl)oxy)-2-hydroxybenzaldehyde] | > 100000 nM | – | – | – | – | –
15 | Cc1c(COc2cc(OCc3cccc(C#N)c3)c(C=O)cc2Cl)cccc1-c1ccccc1 [Compound 3a, 3-((4-Chloro-2-formyl-5-((2-methyl-[1,1′-biphenyl]-3-yl)methoxy)phenoxy)methyl)benzonitrile] | – | 1300 nM | – | – | – | –
16 | Cc1c(COc2cc(OCc3ccnc(C#N)c3)c(C=O)cc2Cl)cccc1-c1ccc2c(c1)OCCO2 [Compound 3b, 4-((4-Chloro-5-((3-(2,3-dihydrobenzo[b][1,4]dioxin-6-yl)-2-methylbenzyl)oxy)-2-formylphenoxy)methyl)picolinonitrile] | – | 207 ± 340 nM | – | – | – | –
17 | Cc1c(COc2cc(OCc3cccc(C#N)c3)c(C=O)cc2Cl)cccc1-c1ccc2c(c1)OCCO2 [Compound 3c, 3-((4-Chloro-5-((3-(2,3-dihydrobenzo[b][1,4]dioxin-6-yl)-2-methylbenzyl)oxy)-2-formylphenoxy)methyl)benzonitrile] | > 5000 nM | – | – | – | – | –
18 | Cc1c(COc2cc(OCc3cocn3)c(C=O)cc2Cl)cccc1-c1ccc2c(c1)OCCO2 [Compound 3d, 5-Chloro-4-((3-(2,3-dihydrobenzo[b][1,4]dioxin-6-yl)-2-methylbenzyl)oxy)-2-(oxazol-4-ylmethoxy)benzaldehyde] | > 5000 nM | – | – | – | – | –
19 | Cc1c(COc2cc(OCc3ccnc(C#N)c3)c(C=O)cc2Cl)cccc1-n1cccc1 [Compound 3e, 4-((4-Chloro-2-formyl-5-((2-methyl-3-(1H-pyrrol-1-yl)benzyl)oxy)phenoxy)methyl)picolinonitrile] | > 5000 nM | – | – | – | – | –
20 | CC(=O)NCCNCc1cnc(OCc2cccc(-c3ccccc3)c2C)c(Cl)c1 [Compound 4a, N-(2-(((5-Chloro-6-((2-methyl-[1,1′-biphenyl]-3-yl)methoxy)pyridin-3-yl)methyl)amino)ethyl)acetamide] | > 50000 nM | – | 2.3 ± 0.1 | 2.33 ± 0.14 | – | –
21 | Cc1c(COc2cc(OCc3cccc(C#N)c3)c(CN[C@H](CO)C(=O)O)cc2Cl)cccc1-c1ccccc1 [Compound 4b, (5-Chloro-2-((3-cyanobenzyl)oxy)-4-((2-methyl-[1,1′-biphenyl]-3-yl)methoxy)benzyl)-D-serine] | 6.7 ± 0.4 nM | – | – | 3.46 ± 0.05 | – | –
22 | Cc1c(COc2cc(OCc3ccnc(C#N)c3)c(CN[C@H](CO)C(=O)O)cc2Cl)cccc1-c1ccc2c(c1)OCCO2 [Compound 4c, (5-Chloro-2-((2-cyanopyridin-4-yl)methoxy)-4-((3-(2,3-dihydrobenzo[b][1,4]dioxin-6-yl)-2-methylbenzyl)oxy)benzyl)-D-serine] | 6.1 ± 0.3 nM | – | – | 3.25 ± 0.03 | – | –
23 | CC(=O)NCCNCc1cc(Cl)c(OCc2cccc(-c3ccc4c(c3)OCCO4)c2C)cc1OCc1ccnc(C#N)c1 [Compound 4d, N-(2-((5-Chloro-2-((2-cyanopyridin-4-yl)methoxy)-4-((3-(2,3-dihydrobenzo [b][1,4]dioxin-6-yl)-2-methylbenzyl)oxy)benzyl)amino)ethyl)acetamide] | 9.2 ± 0.6 nM | – | 4.5 ± 0.2 | 4.45 ± 0.2 | – | –
24 | Cc1c(COc2cc(OCc3ccnc(C#N)c3)c(CNCCO)cc2Cl)cccc1-c1ccc2c(c1)OCCO2 [Compound 4e, 4-((4-Chloro-5-((3-(2,3-dihydrobenzo[b][1,4]dioxin-6-yl)-2-methylbenzyl)oxy)-2-(((2-hydroxyethyl)amino)methyl)phenoxy)methyl)picolinonitrile] | 7.7 ± 0.6 nM | – | 4.7 ± 0.2 | 4.71 ± 0.24 | – | –
25 | Cc1c(COc2cc(OCc3ccnc(C#N)c3)c(CN3CCCC[C@H]3C(=O)O)cc2Cl)cccc1-c1ccc2c(c1)OCCO2 [Compound 4f, (S)-1-(5-Chloro-2-((2-cyanopyridin-4-yl)methoxy)-4-((3-(2,3-dihydrobenzo [b][1,4]dioxin-6-yl)-2-methylbenzyl)oxy)benzyl)piperidine-2-carboxylic Acid] | 4.9 ± 0.3 nM | – | – | 3.64 ± 0.09 | – | –
